Data reported in paper PMC7011955, “Synthesis and biological evaluation of certain hydrazonoindolin-2-one derivatives as new potent anti-proliferative agents” (Journal of Enzyme Inhibition and Medicinal Chemistry, 2018).
Read-outs that look alike come from different tables or passages of the source.

Legend:
[1] = test system: colon cancer HT-29 cell line; test: CellTiter-Glo Luminescent cell viability assay, anti-proliferative activity, HT-29; format: cell-based, human; conditions: 30 µM single concentration, quadruplicate; for inhibition at 30 µM: Homo sapiens, HT-29, read-out: Growth inhibition % HT-29
Method: (§1) The anti-proliferative activity of the title compounds 3a-e, 5a-e, 7a-c, and 10a-l towards cancer cell lines, normal cell lines, and multidrug-resistant lung cancer NCI-H69AR cell line was determined using CellTiter-Glo™ Luminescent cell viability assay according to the previously published procedures[14]^,[15].
(§2) The cancer cell growth inhibitory activity of the synthesised 25 compounds 3a-e, 5a-e, 7a-c, and 10a-l was evaluated in vitro towards three human cancer cell lines, namely lung cancer A-549, human colon cancer HT-29, and breast cancer ZR-75 cell lines using CellTiter-Glo™ Luminescent cell viability assay. Sunitinib was included in this assay as a reference drug.
(§3) The prepared hydrazonoindolin-2-ones were first evaluated at preliminary anti-proliferative assay against the three cancer cell lines in quadruplicate at a single concentration of 30 µM. The data presented as percentage growth inhibition (GI%) caused by the test compounds (Table 1).

[2] = test system: breast cancer ZR-75 cell line; test: CellTiter-Glo Luminescent cell viability assay, anti-proliferative activity, ZR-75; format: cell-based; conditions: Homo sapiens, ZR75; 30 µM single concentration, quadruplicate; read-out: Growth inhibition % ZR-75
Method: as §1, §2, §3

[3] = test system: lung cancer A-549 cell line; test: CellTiter-Glo Luminescent cell viability assay, anti-proliferative activity, A-549; format: cell-based, human; conditions: for inhibition at 30 µM: A549, 30 µM single concentration, quadruplicate, read-out: Growth inhibition % A-549; for IC50: read-out: IC50 A-549
Method: as §1, §2, §3

[4] = test system: A-549, ZR-75 and HT-29 cell lines; test: Average anti-proliferative activity over the three cancer cell lines; format: cell-based, human; conditions: average over A-549, ZR-75, HT-29; for Average growth inhibition % / inhibition at 30 µM: 30 µM; for inhibition at 30 µM / IC50: Homo sapiens; for inhibition at 30 µM: read-out: Average growth inhibition %
Method: as §1, §2, §3

[5] = test system: colon cancer HT-29 cell line; test: CellTiter-Glo Luminescent cell viability assay, anti-proliferative activity, HT-29; format: cell-based; conditions: Homo sapiens, mean ± SD of four separate experiments
[6] = test system: breast cancer ZR-75 cell line; test: CellTiter-Glo Luminescent cell viability assay, anti-proliferative activity, ZR-75; format: cell-based, human
[7] = Homo sapiens, ZR75, mean ± SD of four separate experiments
[8] = Homo sapiens, A549, mean ± SD of four separate experiments
[9] = mean ± SD of four separate experiments

Row | melting point [°C] | IC50 [5] [µM] | IC50 [6, 7] [µM] | IC50 [3, 8] [µM] | IC50 [4] [µM] | IC50 [3, 9] [µM] | IC50 [6, 9] [µM] | SMILES | inhibition at 30 µM [1] [%] | inhibition at 30 µM [2] [%] | inhibition at 30 µM ([3]; Homo sapiens) [%] | Average growth inhibition % [4] [%] | inhibition at 30 µM [4] [%] | Growth inhibition % HT-29 [1]
1 | > 300 | – | – | – | – | – | – | O=C1Nc2ccc(Br)cc2C1=NNc1nc(-c2ccc(Br)cc2)cs1 [Compound 10l, 5-Bromo-3–(2-(4–(4-bromophenyl)thiazol-2-yl)hydrazono)indolin-2-one] | 27.8 ± 4.3 | 40.9 ± 16.7 | -20.1 ± 5.9 | 34.4 | < 35 | –
2 | 225 to 227 | 21.1 ± 1.86 | 9.72 ± 2.52 | 11.2 ± 1.45 | 14 | – | – | COC(=O)c1ccc(C=NN=C2C(=O)Nc3ccccc32)cc1 [Compound 3b, Methyl 4-(((2-oxoindolin-3-ylidene)hydrazono)methyl)benzoate] | 92.3 ± 3.7 | 80.6 ± 7 | 68.1 ± 2.8 | 80.3 | > 80 | –
3 | 228 to 230 | – | – | – | > 30 | – | – | CC(=O)c1ccc(C=NN=C2C(=O)Nc3ccccc32)cc1 [Compound 3a, 3-((4-Acetylbenzylidene)hydrazono)indolin-2-one] | 53.6 ± 12.2 | 29.6 ± 24.4 | 12.7 ± 7.1 | 32.0 | < 35 | –
4 | > 300 | 19.8 ± 1.63 | 3.61 | 20.1 ± 3.81 | 14.5 | – | – | O=C1Nc2ccc(Br)cc2C1=NNc1nc(-c2ccc(Cl)cc2)cs1 [Compound 10k, 5-Bromo-3–(2-(4–(4-chlorophenyl)thiazol-2-yl)hydrazono)indolin-2-one] | 66.8 ± 19.1 | 50.6 ± 11.5 | 72.4 ± 3.5 | – | 63.3 | –
5 | 293 to 295 | 6.15 ± 0.51 | 2.09 ± 0.12 | 4.87 ± 0.49 | 4.37 | – | – | O=C1Nc2ccc(Cl)cc2C1=NN=Cc1nccs1 [Compound 5b, 5-Chloro-3-((thiazol-2-ylmethylene)hydrazono)indolin-2-one] | 96.2 ± 4.5 | 95 ± 8.2 | 93.6 ± 5.4 | – | 94.9 | –
6 | > 300 | > 30 | 23.4 | 22.7 ± 3.71 | > 25.4 | – | – | Cc1ccc(-c2csc(NN=C3C(=O)Nc4ccc(Cl)cc43)n2)cc1 [Compound 10f, 5-Chloro-3–(2-(4-(p-tolyl)thiazol-2-yl)hydrazono)indolin-2-one] | 54.4 ± 19.5 | 50.3 ± 33.6 | 27.4 ± 5.8 | – | 44 | –
7 | 264 to 266 | – | – | – | – | – | – | O=C1Nc2ccc(Br)cc2C1=NN=Cc1ccn[nH]1 [Compound 7c, 3-(((1H-pyrazol-5-yl)methylene)hydrazono)-5-bromoindolin-2-one] | 28.8 ± 17.3 | 19.2 ± 22.8 | 32.8 ± 8.9 | 26.9 | < 35 | –
8 | 238 to 240 | – | – | – | – | – | – | Cc1csc(C=NN=C2C(=O)Nc3ccccc32)n1 [Compound 5a, 3-(((4-Methylthiazol-2-yl)methylene)hydrazono)indolin-2-one] | 37.9 ± 26.3 | 40.8 ± 25.7 | 2.4 ± 5 | 27.0 | < 35 | –
9 | 295 to 297 | > 30 | 4.89 | 17.2 ± 2.56 | > 17.4 | – | – | O=C1Nc2ccccc2C1=NNc1nc(-c2ccc(Cl)cc2)cs1 [Compound 10c, 3–(2-(4–(4-Chlorophenyl)thiazol-2-yl)hydrazono)indolin-2-one] | 85.4 ± 7 | 77.1 ± 10.9 | 31.4 ± 9.1 | – | 64.6 | –
10 | 284 to 286 | > 30 | 24.6 | > 30 | > 28.2 | > 30 | – | Cc1ccc(-c2csc(NN=C3C(=O)Nc4ccccc43)n2)cc1 [Compound 10b, 3–(2-(4–(4-Tolyl)thiazol-2-yl)hydrazono)indolin-2-one] | 33.9 ± 21.2 | 62.1 ± 10.7 | 24.4 ± 14.1 | – | 40.1 | –
11 | 283 to 285 | > 30 | > 30 | 22.9 ± 3.51 | > 27.7 | – | > 30 | O=C1Nc2ccccc2C1=NN=Cc1ccn[nH]1 [Compound 7a, 3-(((1H-pyrazol-5-yl)methylene)hydrazono)indolin-2-one] | 60.8 ± 13.1 | 60.1 ± 5.8 | 8.2 ± 15.1 | – | 43 | –
12 | > 300 | > 30 | 1.87 ± 0.26 | 6.07 ± 7.41 | > 12.7 | – | – | O=C1Nc2ccc(Cl)cc2C1=NNc1nc(-c2ccc(Cl)cc2)cs1 [Compound 10g, 5-Chloro-3–(2-(4–(4-chlorophenyl)thiazol-2-yl)hydrazono)indolin-2-one] | 34.4 ± 23.6 | 52.8 ± 9.4 | 18.9 ± 3.2 | – | 35.4 | –
13 | 290 to 292 | 4.29 ± 0.25 | 1.16 ± 0.39 | 2.15 ± 0.23 | 2.53 | – | – | Cc1csc(C=NN=C2C(=O)Nc3ccc(Cl)cc32)n1 [Compound 5c, 5-Chloro-3-(((4-methylthiazol-2-yl)methylene)hydrazono)indolin-2-one] | 96.4 ± 4.8 | 98 ± 2.6 | 98.8 ± 1.5 | – | 97.7 | –
14 | 260 to 262 | 15.3 ± 1.93 | 12.7 ± 2.4 | 12.5 ± 1.73 | 13.5 | – | – | O=C1Nc2ccc(Br)cc2C1=NN=Cc1nccs1 [Compound 5d, 5-Bromo-3-((thiazol-2-ylmethylene)hydrazono)indolin-2-one] | 98.5 ± 3.1 | 96.4 ± 1.5 | 94.8 ± 2.5 | – | 96.6 | –
15 | > 300 | – | – | – | – | – | – | O=C1Nc2ccc(Cl)cc2C1=NNc1nc(-c2ccc(Br)cc2)cs1 [Compound 10h, 3–(2-(4–(4-Bromophenyl)thiazol-2-yl)hydrazono)-5-chloroindolin-2-one] | -8.3 ± 43.8 | 9 ± 19.2 | -2.6 ± 7.5 | – | – | stimulated the growth
16 | – | – | – | – | – | – | – | O=C1Nc2ccccc2C1=NNc1nc(-c2ccc(Br)cc2)cs1 [Compound 10d, 3–(2-(4–(4-Bromophenyl)thiazol-2-yl)hydrazono)indolin-2-one] | 20.6 ± 26.9 | 53.8 ± 19.2 | 12.3 ± 11.3 | 28.9 | < 35 | –
17 | – | 19.4 ± 1.03 | 4.35 | 9.41 ± 1.29 | 11.1 | – | – | O=C1Nc2ccccc2C1=NNc1nc(-c2ccccc2)cs1 [Compound 10a, 3–(2-(4-Phenylthiazol-2-yl)hydrazono)indolin-2-one] | 91.2 ± 8.3 | 76.9 ± 7.1 | 70.7 ± 5.7 | – | 79.6 | –
